Source: patent US20040142864A1, “Crystal structure of PIM-1 kinase” (Plexxikon, Inc., priority 2002, published 2004)

Biological target: PIM-1 (Homo sapiens, UniProt P11309)
Test: PY20 AlphaScreen kit kinase inhibition assay

PIM-1, sequence (P11309 whole entry): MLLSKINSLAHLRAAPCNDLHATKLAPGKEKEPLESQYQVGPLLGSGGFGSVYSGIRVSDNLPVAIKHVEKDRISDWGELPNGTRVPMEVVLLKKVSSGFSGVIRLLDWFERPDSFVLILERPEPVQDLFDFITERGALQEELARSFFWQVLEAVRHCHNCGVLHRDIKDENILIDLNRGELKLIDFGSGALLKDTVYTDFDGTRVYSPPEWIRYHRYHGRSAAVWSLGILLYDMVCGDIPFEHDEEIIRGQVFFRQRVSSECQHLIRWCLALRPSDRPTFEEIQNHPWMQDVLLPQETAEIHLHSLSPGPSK

CSc1cccc(Nc2ncc3cc(-c4c(Cl)cccc4Cl)c(=O)n(C)c3n2)c1
IC50: 10 nM
